Each structure is given as a SMILES string.

One assay deals with PTGER2 (EP2) (Homo sapiens (Human), UniProt P43116). Kind of assay: hEP2 b-arrestin assay (PathHunter HEK 293 PTGER2 b-arrestin cells). It counts as cell-based. As to conditions: antagonistic activity, beta-arrestin assay; read-out: hEP2 b-arr IC50. The method, then:
Plate is pre-incubated 15 minutes at 37° C. Then five microliters of PGE2 (final conc. 5 μM) are transferred into the assay plate. Plate is incubated 120 minutes at 37° C.
(each concentration is measured in duplicate)

For another assay, the target named is PTGER4 (EP4) (Homo sapiens (Human), UniProt P35408). Kind of assay: cell-based.
PTGER4 (EP4), sequence (P35408 whole entry): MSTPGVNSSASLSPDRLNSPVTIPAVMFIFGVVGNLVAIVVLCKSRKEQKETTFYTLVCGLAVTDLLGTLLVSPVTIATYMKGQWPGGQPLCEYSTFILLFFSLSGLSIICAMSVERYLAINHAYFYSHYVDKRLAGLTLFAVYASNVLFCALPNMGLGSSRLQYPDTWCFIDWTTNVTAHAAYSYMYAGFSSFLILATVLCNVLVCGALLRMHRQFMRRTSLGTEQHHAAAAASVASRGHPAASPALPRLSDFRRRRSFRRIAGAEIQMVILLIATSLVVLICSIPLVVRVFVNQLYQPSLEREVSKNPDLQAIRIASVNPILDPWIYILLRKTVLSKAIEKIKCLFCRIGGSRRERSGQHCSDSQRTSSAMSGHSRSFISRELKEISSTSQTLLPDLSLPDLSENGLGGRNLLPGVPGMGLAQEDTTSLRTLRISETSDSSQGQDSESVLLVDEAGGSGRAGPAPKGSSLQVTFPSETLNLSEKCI

PTGER2 (EP2), sequence (P43116 whole entry): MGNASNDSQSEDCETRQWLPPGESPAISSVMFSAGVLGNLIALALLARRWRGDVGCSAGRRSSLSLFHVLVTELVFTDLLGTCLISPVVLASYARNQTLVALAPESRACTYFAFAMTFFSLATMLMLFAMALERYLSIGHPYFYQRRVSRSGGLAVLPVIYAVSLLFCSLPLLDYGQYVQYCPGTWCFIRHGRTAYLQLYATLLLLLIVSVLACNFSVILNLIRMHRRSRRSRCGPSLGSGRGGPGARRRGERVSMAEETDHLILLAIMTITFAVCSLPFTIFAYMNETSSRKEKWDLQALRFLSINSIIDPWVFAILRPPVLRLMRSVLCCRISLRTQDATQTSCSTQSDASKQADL

One may read the IC50 as the concentration that gives 50% inhibition. As to `CCOc1cc(-c2cc(NCCc3ccc4ccccc4c3C)ncn2)ccc1-c1noc(=S)[nH]1` [Example 565, 3-(2-Ethoxy-4-{6-[2-(1-methyl-naphthalen-2-yl)-ethylamino]-pyrimidin-4-yl}-phenyl)-[1,2,4]oxadiazole-5(4H)-thione], the IC50 on PTGER2 (EP2) is 58 nM; against PTGER4 (EP4), 23 nM.
`CCOc1cc(-c2cc(NCCc3cc(F)c4sccc4c3)ncn2)ccc1CC(=O)O` [Example 363, (2-Ethoxy-4-{6-[2-(7-fluoro-benzo[b]thiophen-5-yl)-ethylamino]-pyrimidin-4-yl}-phenyl)-acetic acid]: the IC50 on PTGER2 (EP2) amounted to 479 nM; on PTGER4 (EP4), 59 nM.
For the molecule `CCc1cc(-c2cc(NCCc3ccc4c(c3C)OCCO4)ncn2)ccc1CC(=O)O` [Example 513, (2-Ethyl-4-{6-[2-(5-methyl-2,3-dihydro-benzo[1,4]dioxin-6-yl)-ethylamino]-pyrimidin-4-yl}-phenyl)-acetic acid], the IC50 was 158 nM at PTGER2 (EP2) and 347 nM on PTGER4 (EP4).
Taken in the same sequence, the figures for `Cc1cc(-c2cc(NCCc3cc(F)c4sccc4c3)ncn2)ccc1C(=O)O` [Example 555, 4-{6-[2-(7-Fluoro-benzo[b]thiophen-5-yl)-ethylamino]-pyrimidin-4-yl}-2-methyl-benzoic acid] were 887 nM and 835 nM.
The matching figures for `COC(=O)c1sc(-c2cc(NCCc3ccc4ccccc4c3C)ncn2)cc1O` [Example 468, 3-Hydroxy-5-{6-[2-(1-methyl-naphthalen-2-yl)-ethylamino]-pyrimidin-4-yl}-thiophene-2-carboxylic acid methyl ester]: 564 nM and 571 nM.
Turning to `COc1cc(-c2cc(NCCc3cc(F)c4sccc4c3)ncn2)ccc1CCC(=O)O` [Example 560, 3-(4-{6-[2-(7-Fluoro-benzo[b]thiophen-5-yl)-ethylamino]-pyrimidin-4-yl}-2-methoxy-phenyl)-propionic acid], the IC50 was determined as 476 nM at PTGER2 (EP2) and 134 nM against PTGER4 (EP4).
The matching figures for `CCOc1cc(-c2cc(NCCc3ccc4scc(Cl)c4c3)ncn2)ccc1CC(=O)O` [Example 431, (4-{6-[2-(3-Chloro-benzo[b]thiophen-5-yl)-ethylamino]-pyrimidin-4-yl}-2-ethoxy-phenyl)-acetic acid]: 179 nM and 52 nM.
On to `Cc1c(CCNc2cc(-c3ccc(C(=O)O)c(OC4CC4)c3)ncn2)ccc2ccccc12` [Example 521, 2-Cyclopropoxy-4-{6-[2-(1-methyl-naphthalen-2-yl)-ethylamino]-pyrimidin-4-yl}-benzoic acid], for which the IC50 came out at 31 nM at PTGER2 (EP2) and 78 nM against PTGER4 (EP4).
Regarding `CCCOc1cc(-c2cc(NCCc3ccc4sccc4c3F)ncn2)ccc1CC(=O)O` [Example 393, (4-{6-[2-(4-Fluoro-benzo[b]thiophen-5-yl)-ethylamino]-pyrimidin-4-yl}-2-propoxy-phenyl)-acetic acid], the 50% inhibitory concentration (IC50) on PTGER2 (EP2) was 155 nM; against PTGER4 (EP4), 166 nM.
On to `CCn1cc(-c2cc(NCCc3cc(F)c4sccc4c3)ncn2)cc1C(=O)O` [Example 547, 1-Ethyl-4-{6-[2-(7-fluoro-benzo[b]thiophen-5-yl)-ethylamino]-pyrimidin-4-yl}-1H-pyrrole-2-carboxylic acid], for which the IC50 at PTGER2 (EP2) is 825 nM; at PTGER4 (EP4), 322 nM.
Turning to `CCCc1cc(-c2cc(NCCc3cc4c(cc3C)OCCO4)ncn2)ccc1CC(=O)O` [Example 526, (4-{6-[2-(7-Methyl-2,3-dihydro-benzo[1,4]dioxin-6-yl)-ethylamino]-pyrimidin-4-yl}-2-propyl-phenyl)-acetic acid], the IC50 on PTGER2 (EP2) came out at 96 nM; against PTGER4 (EP4), 269 nM.
As for `CCCc1cc(-c2cc(NCCc3c(OC)cc4c(c3F)OCCO4)ncn2)ccc1CC(=O)O` [Example 408, (4-{6-[2-(5-Fluoro-7-methoxy-2,3-dihydro-benzo[1,4]dioxin-6-yl)-ethylamino]-pyrimidin-4-yl}-2-propyl-phenyl)-acetic acid], the results for the IC50 on PTGER2 (EP2) and against PTGER4 (EP4) were 29 nM and 24 nM, respectively.
In the case of `CCc1cc(-c2cc(NCCc3cc(F)c4sccc4c3)ncn2)ccc1C(=O)O` [Example 518, 2-Ethyl-4-{6-[2-(7-fluoro-benzo[b]thiophen-5-yl)-ethylamino]-pyrimidin-4-yl}-benzoic acid], the IC50 at PTGER2 (EP2) stood at 116 nM; at PTGER4 (EP4) it was 176 nM.
For `CCCc1cc(-c2cc(NCCc3cc(F)c4sccc4c3)ncn2)cc(OCC)c1C(=O)O` [Example 551, 2-Ethoxy-4-{6-[2-(7-fluoro-benzo[b]thiophen-5-yl)-ethylamino]-pyrimidin-4-yl}-6-propyl-benzoic acid], the IC50 was found to be 900 nM at PTGER2 (EP2) and 867 nM against PTGER4 (EP4).
As for `COc1cc(-c2cc(NCCc3ccc4c(c3C)OCCO4)ncn2)ccc1CC(=O)O` [Example 505, (2-Methoxy-4-{6-[2-(5-methyl-2,3-dihydro-benzo[1,4]dioxin-6-yl)-ethylamino]-pyrimidin-4-yl}-phenyl)-acetic acid], the IC50 stood at 427 nM on PTGER2 (EP2) and 929 nM on PTGER4 (EP4).
In the case of `CCOc1cc(-c2cc(NCCc3ccc4sccc4c3F)ncn2)sc1C(=O)O` [Example 367, 3-Ethoxy-5-{6-[2-(4-fluoro-benzo[b]thiophen-5-yl)-ethylamino]-pyrimidin-4-yl}-thiophene-2-carboxylic acid], the IC50 on PTGER2 (EP2) was 7 nM; against PTGER4 (EP4), 2 nM.
For `CCOc1c(CC(=O)O)ccc(-c2cc(NCCc3cc(F)c4sccc4c3)ncn2)c1F` [Example 564, (2-Ethoxy-3-fluoro-4-{6-[2-(7-fluoro-benzo[b]thiophen-5-yl)-ethylamino]-pyrimidin-4-yl}-phenyl)-acetic acid], the IC50 at PTGER2 (EP2) is 817 nM; on PTGER4 (EP4), 212 nM.
Turning to `CCc1cc(-c2cc(NCCc3ccc4c(c3C)OCCO4)ncn2)ccc1C(=O)O` [Example 515, 2-Ethyl-4-{6-[2-(5-methyl-2,3-dihydro-benzo[1,4]dioxin-6-yl)-ethylamino]-pyrimidin-4-yl}-benzoic acid], the IC50 at PTGER2 (EP2) stood at 67 nM; at PTGER4 (EP4), 893 nM.
With `CCCc1cc(-c2cc(NCCc3c(OC)cc4ccccc4c3C)ncn2)ccc1CC(=O)O` [Example 388, (4-{6-[2-(3-Methoxy-1-methyl-naphthalen-2-yl)-ethylamino]-pyrimidin-4-yl}-2-propyl-phenyl)-acetic acid], the IC50 on PTGER2 (EP2) was found to be 45 nM; against PTGER4 (EP4), 13 nM.
For `CCOc1cc(-c2cc(NCCc3ccc4sccc4c3C)ncn2)cc(F)c1CC(=O)O` [Example 372, (2-Ethoxy-6-fluoro-4-{6-[2-(4-methyl-benzo[b]thiophen-5-yl)-ethylamino]-pyrimidin-4-yl}-phenyl)-acetic acid], the IC50 is 75 nM on PTGER2 (EP2) and 195 nM against PTGER4 (EP4).
Consider `CC(C)Cc1cc(-c2cc(NCCc3ccc4sccc4c3F)ncn2)ccc1CC(=O)O` [Example 409, (4-{6-[2-(4-Fluoro-benzo[b]thiophen-5-yl)-ethylamino]-pyrimidin-4-yl}-2-isobutyl-phenyl)-acetic acid], for which the IC50 on PTGER2 (EP2) came to 260 nM; against PTGER4 (EP4), 57 nM.
With `CCCOc1cc(-c2cc(NCCc3ccc4sccc4c3)ncn2)ccc1CC(=O)O` [Example 479, {4-[6-(2-Benzo[b]thiophen-5-yl-ethylamino)-pyrimidin-4-yl]-2-propoxy-phenyl}-acetic acid], the IC50 at PTGER2 (EP2) worked out at 345 nM; against PTGER4 (EP4), 158 nM.
Consider `COc1cc2c(cc1CCNc1cc(-c3ccc(CC(=O)O)c(OC(F)(F)F)c3)ncn1)OCCO2` [Example 450, (4-{6-[2-(7-Methoxy-2,3-dihydro-benzo[1,4]dioxin-6-yl)-ethylamino]-pyrimidin-4-yl}-2-trifluoromethoxy-phenyl)-acetic acid], for which the IC50 at PTGER2 (EP2) came out at 66 nM; at PTGER4 (EP4), 97 nM.
The matching figures for `CCCc1cc(-c2cc(NCCc3cc(F)c4sccc4c3)ncn2)ccc1C(=O)NCCO` [Example 460, 4-{6-[2-(7-Fluoro-benzo[b]thiophen-5-yl)-ethylamino]-pyrimidin-4-yl}-N-(2-hydroxy-ethyl)-2-propyl-benzamide]: 207 nM and 161 nM.
Taken in the same sequence, the figures for `COc1cc2ccccc2c(C)c1CCNc1cc(-c2ccc(C(=O)O)c(OC3CC3)c2)ncn1` [Example 448, 2-Cyclopropoxy-4-{6-[2-(3-methoxy-1-methyl-naphthalen-2-yl)-ethylamino]-pyrimidin-4-yl}-benzoic acid] were 15 nM and 46 nM.
The matching figures for `CCOc1cc(-c2cc(NCCc3cc(F)c4sccc4c3)ncn2)ccc1C(=O)NC` [Example 462, 2-Ethoxy-4-{6-[2-(7-fluoro-benzo[b]thiophen-5-yl)-ethylamino]-pyrimidin-4-yl}-N-methyl-benzamide]: 325 nM and 197 nM.
For the molecule `CCOc1cc(-c2cc(NCCc3c(OC)cc4c(c3F)OCCO4)ncn2)ccc1C(=O)O` [Example 435, 2-Ethoxy-4-{6-[2-(5-fluoro-7-methoxy-2,3-dihydro-benzo[1,4]dioxin-6-yl)-ethylamino]-pyrimidin-4-yl}-benzoic acid], the IC50 amounted to 46 nM at PTGER2 (EP2) and 110 nM against PTGER4 (EP4).
`CC(C)Oc1cc(-c2cc(NCCc3ccc4sccc4c3F)ncn2)ccc1CC(=O)O` [Example 424, (4-{6-[2-(4-Fluoro-benzo[b]thiophen-5-yl)-ethylamino]-pyrimidin-4-yl}-2-isopropoxy-phenyl)-acetic acid]: the IC50 at PTGER2 (EP2) was 424 nM; at PTGER4 (EP4), 80 nM.
Consider `CCOc1cc(-c2cc(NCCc3cc4ccsc4cc3OC)ncn2)cc(F)c1CC(=O)O` [Example 371, (2-Ethoxy-6-fluoro-4-{6-[2-(6-methoxy-benzo[b]thiophen-5-yl)-ethylamino]-pyrimidin-4-yl}-phenyl)-acetic acid], for which the IC50 is 86 nM on PTGER2 (EP2) and 88 nM on PTGER4 (EP4).

Source of the values: US11839613B2, “Pyrimidine derivatives as PGE2 receptor modulators” (IDORSIA PHARMACEUTICALS LTD, priority 2017, dated 2023).
